In article PMC4286281, “Profiling of the Tox21 Chemical Collection for Mitochondrial Function to Identify Compounds that Acutely Decrease Mitochondrial Membrane Potential” (Environmental Health Perspectives, 2014):
Counter-ions that a name gives are not always drawn. Like-named read-outs stand apart in the source and are kept apart here.

Test system: mitochondrial membrane potential (MMP) in HepG2 cells
Assay: qHTS mitochondrial membrane potential (MMP) assay with m-MPI dye, multiplexed with CellTiter-Glo cell viability
Assay type: cell-based, human
Settings: for Emax: read-out: Efficacy; for MMP assay activity outcome (active antagonist / inactive / inconclusive): call from triplicate runs, multichannel readout and cell viability
[1] = Homo sapiens, HepG2, 1 h, read-out: Potency
[2] = Homo sapiens, HepG2 cells, 1 hr treatment, ratio 590 nm/535 nm, read-out: IC50 in the MMP assay (decrease of MMP)
[3] = Table S4, 20 most potent active compounds for the MMP screen, HepG2, 1 hr
[4] = Table S4, 20 most potent active compounds for the MMP screen, HepG2, 1 hr, read-out: Potency
[5] = HepG2 cells, 1 hr treatment, ratio 590 nm/535 nm, read-out: IC50 in the MMP assay (decrease of MMP)

Compound: Nc1ccc(N)c2c1C(=O)c1ccccc1C2=O [1,4-Diaminoanthraquinone]
- Emax (Homo sapiens, HepG2, 1 h): 82%
- IC50 [1]: 33.1 nM

Compound: O=C1c2c(O)ccc([N+](=O)[O-])c2C(=O)c2c([N+](=O)[O-])ccc(O)c21 [1,8-Dihydroxy-4,5-dinitroanthraquinone]
- Efficacy: 86.4%
- IC50 (read-out: Potency): 73.4 nM

Compound: O=C(c1ccccc1O)c1ccccc1O [2,2´-dihydroxybenzophenone]
- IC50 [2]: 14100 nM

Compound: Oc1c(Cl)c(Cl)c(Cl)c(Cl)c1Cl [2,3,4,5,6-pentachlorophenol]
- MMP assay activity outcome (active antagonist / inactive / inconclusive) (HepG2 cells, 1 hr treatment): active

Compound: NNc1nc(-c2ccc(N)cc2)cs1 [2-Hydrazino-4-(4-aminophenyl) thiazole]
- Efficacy [3]: 82.5%
- IC50 [4]: 63.5 nM

Compound: COc1ccc(C(=O)c2ccccc2)c(O)c1 [2-hydroxy-4-methoxybenzophenone]
- MMP assay activity outcome (active antagonist / inactive / inconclusive) (HepG2 cells, 1 hr treatment): not active

Compound: O=C(c1ccccc1)c1ccccc1O [2-hydroxybenzophenone]
- MMP assay activity outcome (active antagonist / inactive / inconclusive) (HepG2 cells, 1 hr treatment): inactive

Compound: O=C(c1ccccc1)c1cccc(O)c1 [3-hydroxybenzophenone]
- IC50 [2]: 27700 nM

Compound: O=C(c1ccc(Cl)cc1)c1ccc(Cl)cc1 [4,4´-dichlorobenzophenone]
- MMP assay activity outcome (active antagonist / inactive / inconclusive) (HepG2 cells, 1 hr treatment): inactive

Compound: O=C(c1ccc(O)cc1)c1ccc(O)cc1 [4,4´-dihydoxybenzophenone]
- MMP assay activity outcome (active antagonist / inactive / inconclusive) (HepG2 cells, 1 hr treatment): inconclusive

Compound: CC(C)(c1ccccc1)c1ccc(O)cc1 [4-(1-methyl-1-phenylethyl)phenol]
- MMP assay activity outcome (active antagonist / inactive / inconclusive) (HepG2 cells, 1 hr treatment): active

Compound: Nc1ccc(O)cc1 [4-aminophenol]
- MMP assay activity outcome (active antagonist / inactive / inconclusive) (HepG2 cells, 1 hr treatment): active

Compound: O=C(c1ccccc1)c1ccc(O)cc1 [4-hydroxybenzophenone]
- IC50 [2]: 41300 nM

Compound: Cc1ccc(C(=O)c2ccccc2)cc1 [4-methylbenzophenone]
- MMP assay activity outcome (active antagonist / inactive / inconclusive) (HepG2 cells, 1 hr treatment): inactive

Compound: O=C(c1ccccc1)c1ccccc1 [Benzophenone]
- MMP assay activity outcome (active antagonist / inactive / inconclusive) (HepG2 cells, 1 hr treatment): inactive

Compound: CCC[CH2][Sn]([CH2]CCC)([CH2]CCC)[O][Sn]([CH2]CCC)([CH2]CCC)[CH2]CCC [Bis(tributyltin)oxide]
- Efficacy: 112.1%
- Potency rank in the MMP screen: among the most potent compounds
- IC50 (read-out: Potency): 91.1 nM

Compound: Cl.N=C1C=CC(=C(c2ccc(N)cc2)c2ccc(N)cc2)C=C1 [C.I. Basic red 9 monohydrochloride]
- Potency rank in the MMP screen (HepG2 cells, 1 hr treatment): among the most potent compounds
- Efficacy [3]: 95.3%
- IC50 [4]: 77 nM

Compound: CCOCn1c(-c2ccc(Cl)cc2)c(C#N)c(Br)c1C(F)(F)F [Chlorfenapyr]
- Emax (Homo sapiens, HepG2, 1 h): 105%
- IC50 [1]: 74.1 nM

Compound: CCN1/C(=C/C=C/C=C/c2sc3ccccc3[n+]2CC)Sc2ccccc21 [Dithiazanine iodide]
- Emax (Homo sapiens, HepG2, 1 h): 85.4%
- IC50 [1]: 95.8 nM

Compound: N#CC(C#N)=NNc1ccc(OC(F)(F)F)cc1 [FCCP, carbonyl cyanide 4-(trifluoromethoxy) phenylhydrazone, reference compound]
- IC50 (Homo sapiens, HepG2, 1 h, read-out: IC50 of the positive control, decrease of MMP (mean ± SD)): 110 ± 70 nM

Compound: O=C1OC2(c3ccc(O)cc3Oc3cc(O)ccc32)c2ccccc21 [Fluorescein]
- Emax (Homo sapiens, HepG2, 1 h): 112%
- IC50 [1]: 105 nM

Compound: CN(C)c1ccc(C(=C2C=CC(=[N+](C)C)C=C2)c2ccc(N(C)C)cc2)cc1 [Gentian violet]
- Emax (Homo sapiens, HepG2, 1 h): 91.9%
- IC50 [1]: 78.8 nM

Compound: O=C(Nc1ccc([N+](=O)[O-])cc1Cl)c1cc(Cl)ccc1O [Niclosamide, reference compound]
- Emax (Homo sapiens, HepG2, 1 h): 97.7%
- IC50 [1]: 26.3 nM

Compound: COc1cccc2c1C(=O)c1c(O)c3c(c(O)c1C2=O)C[C@@](O)(C(=O)CO)C[C@@H]3O[C@H]1C[C@H](N)[C@H](O[C@@H]2CCCCO2)[C@H](C)O1 [Pirarubicin, reference compound]
- IC50 [2]: 600 nM

Compound: C[C@@H]1O[C@@H](O[C@@H]2C=C3CC[C@@H]4[C@H](CC[C@]5(C)[C@@H](c6ccc(=O)oc6)CC[C@]45O)[C@@]3(C)CC2)[C@H](O)[C@H](O)[C@H]1O [Proscillaridin, reference compound]
- Potency rank in the MMP screen (HepG2 cells, 1 hr treatment): among the most potent compounds
- Emax (Homo sapiens, HepG2, 1 h): 72.4%
- IC50 [1]: 86.8 nM

Compound: CCC[CH2][Sn]([Cl])([CH2]CCC)[CH2]CCC [Tributyltin chloride]
- Efficacy: 96.9%
- Potency rank in the MMP screen: among the most potent compounds
- IC50 (read-out: Potency): 107 nM

Compound: CC(=O)[O][Sn]([c]1ccccc1)([c]1ccccc1)[c]1ccccc1 [Triphenyltin acetate]
- Efficacy: 98.7%
- Potency rank in the MMP screen (HepG2 cells, 1 hr treatment): among the most potent compounds
- IC50 (read-out: Potency): 117 nM

Compound: [OH-].c1cc[c]([Sn+]([c]2ccccc2)[c]2ccccc2)cc1 [Triphenyltin hydroxide]
- Efficacy: 94.7%
- Potency rank in the MMP screen (HepG2 cells, 1 hr treatment): among the most potent compounds
- IC50 (read-out: Potency): 122 nM

Compound: CC[C@@]1(O)C[C@H](O[C@H]2C[C@H](N(C)C)[C@H](O[C@H]3C[C@H](O)[C@H](O[C@H]4CCC(=O)[C@H](C)O4)[C@H](C)O3)[C@H](C)O2)c2c(cc3c(c2O)C(=O)c2c(O)cccc2C3=O)[C@H]1C(=O)OC [aclarubicin hydrochloride, reference compound]
- MMP assay activity outcome (active antagonist / inactive / inconclusive) (HepG2 cells, 1 hr treatment): active

Compound: COc1cccc2c1C(=O)c1c(O)c3c(c(O)c1C2=O)C[C@@](O)(C(=O)CO)C[C@@H]3O[C@H]1C[C@H](N)[C@H](O)[C@H](C)O1 [adriamycin hydrochloride, reference compound]
- MMP assay activity outcome (active antagonist / inactive / inconclusive) (HepG2 cells, 1 hr treatment): inactive

Compound: ClC1=C(Cl)C2(Cl)C3C4C=CC(C4)C3C1(Cl)C2(Cl)Cl (stereo not shown) [aldrin]
- MMP assay activity outcome (active antagonist / inactive / inconclusive) (HepG2 cells, 1 hr treatment): active as antagonists

Compound: CCN=C1C=CC(=C(c2ccc(N(CC)CC)cc2)c2ccc(N(CC)CC)cc2)c2ccccc21.Cl [basic blue 7, Basic blue 7]
- Potency rank in the MMP screen (HepG2 cells, 1 hr treatment): among the most potent compounds
- IC50 [5]: 18.5 nM
- Efficacy [3]: 86.6%

Compound: CCC/C=C/C=C/C(=O)O[C@H]1/C(=C/C(=O)OC)C[C@H]2C[C@H]([C@@H](C)O)OC(=O)C[C@H](O)C[C@@H]3C[C@H](OC(C)=O)C(C)(C)[C@](O)(C[C@@H]4C/C(=C/C(=O)OC)C[C@H](/C=C/C(C)(C)[C@]1(O)O2)O4)O3 [bryostatin 1, Bryostatin 1, reference compound]
- Emax (Homo sapiens, HepG2, 1 h): 105%
- IC50 [1]: 9.58 nM
- IC50 [2]: 9.6 nM

Compound: CCN1/C(=C/C=C/c2ccc3ccccc3[n+]2CC)C=Cc2ccccc21.[I-] [carbocyanine, Carbocyanine]
- Efficacy [3]: 90.7%
- IC50 [4]: 14.7 nM

Compound: O=C(O)C1C(C(=O)O)C2(Cl)C(Cl)=C(Cl)C1(Cl)C2(Cl)Cl (stereo not shown) [chlorendic acid]
- MMP assay activity outcome (active antagonist / inactive / inconclusive) (HepG2 cells, 1 hr treatment): inactive

Compound: CO[C@@H]1[C@H](O)C[C@@H](O[C@@H]2C[C@H](Oc3cc4cc5c(c(O)c4c(O)c3C)C(=O)[C@@H](O[C@H]3C[C@@H](O[C@H]4C[C@@H](O[C@H]6C[C@](C)(O)[C@@H](OC(C)=O)[C@H](C)O6)[C@H](O)[C@@H](C)O4)[C@H](O)[C@@H](C)O3)[C@H]([C@H](OC)C(=O)[C@@H](O)[C@@H](C)O)C5)O[C@H](C)[C@@H]2OC(C)=O)O[C@@H]1C [chromomycin A3]
- MMP assay activity outcome (active antagonist / inactive / inconclusive) (HepG2 cells, 1 hr treatment): active

Compound: O=[N+]([O-])c1ccc(O)c([N+](=O)[O-])c1 [dinitrophenol, reference compound]
- MMP assay activity outcome (active antagonist / inactive / inconclusive) (HepG2 cells, 1 hr treatment): inconclusive antagonist (cytotoxic)

Compound: CCCCCCCCCCCCOC(=O)c1ccc(O)cc1 [dodecylparaben]
- IC50 [5]: 4200 nM

Compound: COC(=O)c1ccc(O)cc1 [methylparaben]
- MMP assay activity outcome (active antagonist / inactive / inconclusive) (HepG2 cells, 1 hr treatment): inactive

Compound: COc1ccc(C(=O)c2ccc(C)cc2)c(O)c1 [mexenone]
- MMP assay activity outcome (active antagonist / inactive / inconclusive) (HepG2 cells, 1 hr treatment): not active

Compound: C[C@@H]1O[C@@H](O[C@H]2C[C@@H](O)[C@]3(CO)[C@H]4[C@H](O)C[C@]5(C)[C@@H](C6=CC(=O)OC6)CC[C@]5(O)[C@@H]4CC[C@]3(O)C2)[C@H](O)[C@H](O)[C@H]1O [ouabain, reference compound]
- Potency rank in the MMP screen (HepG2 cells, 1 hr treatment): among the most potent compounds

Compound: COc1ccc(Cc2nccc3cc(OC)c(OC)cc23)cc1OC [papaverine, reference compound]
- MMP assay activity outcome (active antagonist / inactive / inconclusive) (HepG2 cells, 1 hr treatment): inconclusive antagonist (cytotoxic)

Compound: CCCCCOC(=O)c1ccc(O)cc1 [pentylparaben]
- IC50 [2]: 8700 nM

Compound: CCCOC(=O)c1ccc(O)cc1 [propylparaben]
- IC50 [2]: 38600 nM

Compound: C=C(C)[C@H]1Cc2c(ccc3c2O[C@@H]2COc4cc(OC)c(OC)cc4[C@@H]2C3=O)O1 [rotenone, reference compound]
- MMP assay activity outcome (active antagonist / inactive / inconclusive) (HepG2 cells, 1 hr treatment): inconclusive antagonist (cytotoxic)

Compound: CC1(C)C(C(Cl)Cl)C2(Cl)C(Cl)C(Cl)C1(Cl)C2(Cl)Cl (stereo not shown) [toxaphene]
- MMP assay activity outcome (active antagonist / inactive / inconclusive) (HepG2 cells, 1 hr treatment): active as antagonists

Compound: CCCCC(=O)OCC(=O)[C@]1(O)Cc2c(O)c3c(c(O)c2[C@@H](O[C@H]2C[C@H](NC(=O)C(F)(F)F)[C@H](O)[C@H](C)O2)C1)C(=O)c1c(OC)cccc1C3=O [valrubicin, reference compound]
- IC50 [2]: 1900 nM

Compound: Methyl violet
- Efficacy: 121.5%
- Potency rank in the MMP screen (HepG2 cells, 1 hr treatment): among the most potent compounds
- IC50 (read-out: Potency): 65.3 nM

Compound: plicamycin [reference compound]
- MMP assay activity outcome (active antagonist / inactive / inconclusive) (HepG2 cells, 1 hr treatment): active
